Assay results taken from patent publication US8034940B2, “Modulators of glucocorticoid receptor, AP-1, and/or NF-κB activity and use thereof” (Bristol-Myers Squibb Company, priority 2006, dated 2011).

Test system: AP-1 induced transcriptional activity
Test: Cellular Transrepressional Assay (AP-1 luciferase reporter, PMA-activated A549 cells)
Type: cell-based
Settings: for Emax: A549, 7 h, read-out: AP-1 Max % inh (Cellular Transrepression Assay); for Emax / AP-1 Max % inh (Cellular Transrepression Assay): maximum inhibition
Description: Cellular Transrepressional Assay
To measure the ability of test molecules to inhibit AP-1 induced transcriptional activity we utilized an A549 cell which was stably transfected with a plasmid containing 7× AP-1 DNA binding sites (pAP-1-Luc plasmid, Stratagene Co. La Jolla, Calif.) followed by the gene for luciferase. Cells were activated with 10 ng/ml of […] (PMA) plus or minus test molecules for 7 hours. After 7 hours a luciferase reagent was added to measure luciferase enzymatic activity in the cell. After a 10 minute incubation of luciferase reagent with cells, luminescence was measured in a TopCount luminescence counter. Repression of AP-1 activity was calculated as the percentage decrease in the signal induced by PMA alone. Test molecules were analyzed in the concentration range from 0.1 nM to 40 μM. EC50s were determined by using standard curve fitting methods such as Excel fit (Microsoft Co.).

[1] = Homo sapiens, Cellular Transrepression Assay
[2] = Homo sapiens, A549, Cellular Transrepression Assay

CC(C)Oc1ccc(-c2ccc3c(c2)Oc2ccccc2C3C(C)(C)C(=O)Nc2nncs2)nc1 (stereo not drawn) [Example 105]
Emax [1]: 30.5%
EC50 [2]: 12.2 nM

CCc1cnc(-c2ccc3c(c2)Oc2ccccc2C3C(C)(C)C(=O)Nc2nncs2)nc1 (stereo not drawn) [Example 106]
Emax [1]: 48.4%
EC50 [2]: 24.1 nM

CC(C)Oc1cnc(-c2ccc3c(c2)Oc2ccccc2[C@@H]3C(C)(C)C(=O)Nc2nncs2)nc1 [Example 107]
Emax [1]: 22.8%
EC50 [2]: 833 nM

CN(C)C(=O)c1cnc(-c2ccc3c(c2)Oc2ccccc2C3C(C)(C)C(=O)Nc2nncs2)nc1 (stereo not drawn) [Example 109]
Emax [1]: 60.2%
EC50 [2]: 182 nM

CCc1cnc(-c2ccc3c(c2)Oc2ccccc2[C@H]3C(C)(C)C(=O)Nc2nncs2)nc1 [Example 110]
Emax [1]: 35.7%
EC50 [2]: 183 nM

CCc1cnc(-c2ccc3c(c2)Oc2ccccc2[C@@H]3C(C)(C)C(=O)Nc2nncs2)nc1 [Example 111]
Emax [1]: 40.7%
EC50 [2]: 14.6 nM

CC(C)(C(=O)Nc1nncs1)C1c2ccccc2Oc2cc(/C(N)=N\O)ccc21 (stereo not drawn) [Example 115]
Emax [1]: 31.3%
EC50 [2]: 3.9 nM

CC(C)(C(=O)Nc1nncs1)C1c2ccccc2Oc2cc(NC(=O)OCc3ccccc3)ccc21 (stereo not drawn) [Example 119]
Emax [1]: 45.3%
EC50 [2]: 83 nM

Cc1ccc(COC(=O)Nc2ccc3c(c2)Oc2ccccc2C3C(C)(C)C(=O)Nc2nncs2)cc1 (stereo not drawn) [Example 121]
Emax [1]: 44.8%
EC50 [2]: 59.5 nM

CC(C)(C(=O)Nc1nncs1)C1c2ccccc2Oc2cc(NC(=O)NC3CCCC3)ccc21 (stereo not drawn) [Example 125]
Emax [1]: 33.2%
EC50 [2]: 94.3 nM

CC(C)(C(=O)Nc1nncs1)C1c2ccccc2Oc2cc(-c3nn[nH]n3)ccc21 (stereo not drawn) [Example 126]
Emax [1]: 30.8%
EC50 [2]: 49.7 nM

COc1ccc(CNc2ccc3c(n2)Oc2ccccc2C3C(C)(C)C(=O)Nc2nncs2)cc1 (stereo not drawn) [Example 128]
Emax [1]: 66.3%
EC50 [2]: 92 nM

CC(C)(C(=O)Nc1nncs1)C1c2ccccc2Oc2nc(N3CCOCC3)ccc21 (stereo not drawn) [Example 129]
Emax [1]: 39.5%
EC50 [2]: 307 nM

CC(C)(C(=O)Nc1nncs1)C1c2ccccc2Oc2nc(N3CCCC3)ccc21 (stereo not drawn) [Example 130]
Emax [1]: 31.5%
EC50 [2]: 111 nM

CN1CCN(c2ccc3c(n2)Oc2ccccc2C3C(C)(C)C(=O)Nc2nncs2)CC1 (stereo not drawn) [Example 131]
Emax [1]: 45.6%
EC50 [2]: 970 nM

CC(C)(C(=O)Nc1nncs1)C1c2ccccc2Oc2nc(N3CCCCC3)ccc21 (stereo not drawn) [Example 132]
Emax [1]: 50.1%
EC50 [2]: 96 nM

CC(C)(C(=O)Nc1nncs1)C1c2ccccc2Oc2nc(NCc3ccccc3)ccc21 (stereo not drawn) [Example 133]
Emax [1]: 61.3%
EC50 [2]: 585 nM

CC(C)(C(=O)Nc1nncs1)[C@H]1c2ccccc2Oc2nc(N3CCC4(CC3)OCCO4)ccc21 [Example 139]
Emax [1]: 26.8%
EC50 [2]: 95.5 nM

COc1ccc(CNc2ccc3c(n2)Oc2ccccc2[C@@H]3C(C)(C)C(=O)Nc2nncs2)cc1 [Example 140]
Emax [1]: 64.1%
EC50 [2]: 93.7 nM

CC(C)(C(=O)Nc1nncs1)[C@H]1c2ccccc2Oc2nc(N3CCCC3)ccc21 [Example 141]
Emax [1]: 44.2%
EC50 [2]: 92.1 nM

CC(C)(C(=O)Nc1nccs1)C1c2ccccc2Oc2nc(N3CCOCC3)ccc21 (stereo not drawn) [Example 154]
Emax [1]: 46.2%
EC50 [2]: 236 nM

CC(C)(C(=O)Nc1nccs1)C1c2ccccc2Oc2nc(N)ccc21 (stereo not drawn) [Example 158]
Emax [1]: 62.5%
EC50 [2]: 200 nM

CC(C)(C(=O)Nc1nncs1)C1c2ccccc2Oc2nc(N)ccc21 (stereo not drawn) [Example 159]
Emax [1]: 30.3%
EC50 [2]: 479 nM

Cc1nnc(NC(=O)C(C)(C)C2c3ccc(-c4ccc(C(=O)N5CCOCC5)cc4)nc3Oc3c(F)cccc32)s1 (stereo not drawn) [Example 163]
Emax [1]: 64.4%
EC50 [2]: 4.9 nM

Cc1nsc(NC(=O)C(C)(C)C2c3ccc(-c4ccc(C(=O)N5CCOCC5)cc4)nc3Oc3c(F)cccc32)n1 (stereo not drawn) [Example 164]
Emax [1]: 58%
EC50 [2]: 8.5 nM

Cc1nnc(NC(=O)C(C)(C)C2c3ccc(-c4ccc(C(=O)N(C)C)c(F)c4)nc3Oc3c(F)cccc32)s1 (stereo not drawn) [Example 165]
Emax [1]: 53.4%
EC50 [2]: 9.8 nM

Cc1nnc(NC(=O)C(C)(C)C2c3ccc(-c4ccc(C(=O)N(C)C)cc4)nc3Oc3c(F)cccc32)s1 (stereo not drawn) [Example 166]
EC50 (Cellular Transrepression Assay): 43.4 nM
EC50 (Cellular Transrepression Assay, listed as 166^a): 14.5 nM
Emax [1]: 56.1%

COc1ccc(-c2ccc3c(n2)Oc2ccccc2C3C(C)(C)C(=O)Nc2nncs2)cc1 (stereo not drawn) [Example 169]
EC50 (Cellular Transrepression Assay): 92.7 nM
AP-1 Max % inh (Cellular Transrepression Assay) (Cellular Transrepression Assay): 48.82%

Cc1ccc(-c2ccc3c(n2)Oc2ccccc2C3C(C)(C)C(=O)Nc2nncs2)cc1 (stereo not drawn) [Example 170]
EC50 (Cellular Transrepression Assay): 182 nM
AP-1 Max % inh (Cellular Transrepression Assay) (Cellular Transrepression Assay): 44.12%

CN(C)C(=O)c1ccc(-c2ccc3c(n2)Oc2ccccc2C3C(C)(C)C(=O)Nc2nncs2)cc1 (stereo not drawn) [Example 172]
EC50 (Cellular Transrepression Assay): 13.2 nM
AP-1 Max % inh (Cellular Transrepression Assay) (Cellular Transrepression Assay): 59.04%

CC(C)(C(=O)Nc1nncs1)C1c2ccccc2Oc2nc(-c3ccc(OC(F)(F)F)cc3)ccc21 (stereo not drawn) [Example 173]
EC50 (Cellular Transrepression Assay): 82.5 nM
AP-1 Max % inh (Cellular Transrepression Assay) (Cellular Transrepression Assay): 44.82%

CN(C)c1ccc(-c2ccc3c(n2)Oc2ccccc2C3C(C)(C)C(=O)Nc2nncs2)cc1 (stereo not drawn) [Example 176]
EC50 (Cellular Transrepression Assay): 118 nM
AP-1 Max % inh (Cellular Transrepression Assay) (Cellular Transrepression Assay): 43.54%

CC(C)(C(=O)Nc1nncs1)C1c2ccccc2Oc2nc(-c3ccc(C(F)(F)F)cc3)ccc21 (stereo not drawn) [Example 182]
EC50 (Cellular Transrepression Assay): 109 nM
AP-1 Max % inh (Cellular Transrepression Assay) (Cellular Transrepression Assay): 33.12%

CC(C)(C(=O)Nc1nncs1)C1c2ccccc2Oc2nc(-c3ccc(O)cc3)ccc21 (stereo not drawn) [Example 191]
EC50 (Cellular Transrepression Assay): 22.6 nM
AP-1 Max % inh (Cellular Transrepression Assay) (Cellular Transrepression Assay): 37.51%

CC(C)(C(=O)Nc1nncs1)C1c2ccccc2Oc2nc(-c3ccc(Oc4ccccc4)cc3)ccc21 (stereo not drawn) [Example 198]
EC50 (Cellular Transrepression Assay): 22.2 nM
AP-1 Max % inh (Cellular Transrepression Assay) (Cellular Transrepression Assay): 34.38%

CSc1ccc(-c2ccc3c(n2)Oc2ccccc2C3C(C)(C)C(=O)Nc2nncs2)cc1 (stereo not drawn) [Example 199]
EC50 (Cellular Transrepression Assay): 27.6 nM
AP-1 Max % inh (Cellular Transrepression Assay) (Cellular Transrepression Assay): 48.94%

CC(C)(C(=O)Nc1nncs1)C1c2ccccc2Oc2nc(-c3ccc(N)cc3)ccc21 (stereo not drawn) [Example 200]
EC50 (Cellular Transrepression Assay): 134 nM
AP-1 Max % inh (Cellular Transrepression Assay) (Cellular Transrepression Assay): 53.76%

CC(=O)c1ccc(-c2ccc3c(n2)Oc2ccccc2C3C(C)(C)C(=O)Nc2nncs2)cc1 (stereo not drawn) [Example 201]
EC50 (Cellular Transrepression Assay): 36.3 nM
AP-1 Max % inh (Cellular Transrepression Assay) (Cellular Transrepression Assay): 65.46%

CC(C)(C(=O)Nc1nncs1)C1c2ccccc2Oc2nc(-c3ccc(OCc4ccccc4)cc3)ccc21 (stereo not drawn) [Example 202]
EC50 (Cellular Transrepression Assay): 219 nM
AP-1 Max % inh (Cellular Transrepression Assay) (Cellular Transrepression Assay): 38.37%

CCOc1ccc(-c2ccc3c(n2)Oc2ccccc2C3C(C)(C)C(=O)Nc2nncs2)cc1 (stereo not drawn) [Example 204]
EC50 (Cellular Transrepression Assay): 42.8 nM
AP-1 Max % inh (Cellular Transrepression Assay) (Cellular Transrepression Assay): 44.75%

CCCc1ccc(-c2ccc3c(n2)Oc2ccccc2C3C(C)(C)C(=O)Nc2nncs2)cc1 (stereo not drawn) [Example 205]
EC50 (Cellular Transrepression Assay): 8.5 nM
AP-1 Max % inh (Cellular Transrepression Assay) (Cellular Transrepression Assay): 57.72%

CCc1ccc(-c2ccc3c(n2)Oc2ccccc2C3C(C)(C)C(=O)Nc2nncs2)cc1 (stereo not drawn) [Example 206]
EC50 (Cellular Transrepression Assay): 21.3 nM
AP-1 Max % inh (Cellular Transrepression Assay) (Cellular Transrepression Assay): 54.73%

CC(C)(C)c1ccc(-c2ccc3c(n2)Oc2ccccc2C3C(C)(C)C(=O)Nc2nncs2)cc1 (stereo not drawn) [Example 207]
EC50 (Cellular Transrepression Assay): 32.6 nM
AP-1 Max % inh (Cellular Transrepression Assay) (Cellular Transrepression Assay): 37.96%

CC(C)Cc1ccc(-c2ccc3c(n2)Oc2ccccc2C3C(C)(C)C(=O)Nc2nncs2)cc1 (stereo not drawn) [Example 208]
EC50 (Cellular Transrepression Assay): 12.2 nM
AP-1 Max % inh (Cellular Transrepression Assay) (Cellular Transrepression Assay): 54.08%

CC(C)Oc1ccc(-c2ccc3c(n2)Oc2ccccc2C3C(C)(C)C(=O)Nc2nncs2)cc1 (stereo not drawn) [Example 209]
EC50 (Cellular Transrepression Assay): 14.3 nM
AP-1 Max % inh (Cellular Transrepression Assay) (Cellular Transrepression Assay): 50.21%

CCCCOc1ccc(-c2ccc3c(n2)Oc2ccccc2C3C(C)(C)C(=O)Nc2nncs2)cc1 (stereo not drawn) [Example 210]
EC50 (Cellular Transrepression Assay): 77.7 nM
AP-1 Max % inh (Cellular Transrepression Assay) (Cellular Transrepression Assay): 39.38%

CC(C)Oc1ccc(-c2ccc3c(n2)Oc2ccccc2C3C(C)(C)C(=O)Nc2nncs2)cc1F (stereo not drawn) [Example 211]
EC50 (Cellular Transrepression Assay): 41.3 nM
AP-1 Max % inh (Cellular Transrepression Assay) (Cellular Transrepression Assay): 49.63%

CCCCc1ccc(-c2ccc3c(n2)Oc2ccccc2C3C(C)(C)C(=O)Nc2nncs2)cc1 (stereo not drawn) [Example 212]
EC50 (Cellular Transrepression Assay): 19.6 nM
AP-1 Max % inh (Cellular Transrepression Assay) (Cellular Transrepression Assay): 63.05%

CCCOc1ccc(-c2ccc3c(n2)Oc2ccccc2C3C(C)(C)C(=O)Nc2nncs2)cc1 (stereo not drawn) [Example 217]
EC50 (Cellular Transrepression Assay): 41 nM
AP-1 Max % inh (Cellular Transrepression Assay) (Cellular Transrepression Assay): 45.81%
